Series [1] in a line: Administration of radiolabeled ALA (14C-ALA) to research the pharmacokinetics of ALA. The series is classed as in vivo.
In series [2] the test system is anemia in piglets. The note with it: reported in Patent Document 1; cited from earlier work.
Series [3] deals with chronic kidney disease. Description: Example 2: ingestion by a person diagnosed with chronic kidney disease, dose switched 50 mg / 5 mg / 50 mg. In kind it is in vivo, human.
Text: The effects of ingesting aminolevulinic acid phosphate and sodium ferrous citrate were examined for a person diagnosed with chronic kidney disease.
For series [4], the system named is chronic kidney disease. Description: Example 3: ingestion by a person with chronic kidney disease after removal of one kidney. The note with it: after ingestion of 150 mg aminolevulinic acid phosphate and 172 mg sodium ferrous citrate per day. In kind it is in vivo, human. The source says:
The effects of ingesting aminolevulinic acid phosphate and sodium ferrous citrate were examined for a person diagnosed with chronic kidney disease after removing one of their kidneys about 5 years ago because of cancer.

Where [5] appears, read: (c) after one month of switching to 5 mg aminolevulinic acid phosphate + 5.74 mg sodium ferrous citrate.
Setting [6] is: (d) after two months of switching to 5 mg aminolevulinic acid phosphate + 5.74 mg sodium ferrous citrate.

This is an account of results in patent US9475755B2, “Prophylactic agent for chronic kidney disease” (SBI Pharmaceuticals Co., Ltd., priority 2011, dated 2016).

Regarding `NCC(=O)CCC(=O)O` [ALA, 5-aminolevulinic acid], the “retention of radiation in the kidneys” value in series [1] (ALA excessively administered, even if urine is discharged) is given as “radiation has remained in the kidneys even after the passing of time”. For the same compound, the “tissue accumulation of ALA-derived radiation” value in series [1] (radiolabeled ALA (14C-ALA) administered) was “found in not only the anticipated liver and muscles, but also in the kidneys”. Further, the prevention of anemia result in series [2] is listed as “effective in preventing anemia in piglets”.
Regarding aminolevulinic acid phosphate, in series [3] (setting [5]), the Serum creatinine is reported as 1.14 mg/dL, the Urea nitrogen came to 12.90 mg/dL and the eGFR was 50.10 mL/min/1.73 m^2. In series [3] (setting [6]), the Serum creatinine is 1.25 mg/dL, the Urea nitrogen was determined as 14.10 mg/dL and the eGFR came out at 45.30 mL/min/1.73 m^2. Further, in series [3] (person who ingested aminolevulinic acid phosphate and sodium ferrous citrate), the “fatigue / quality of life” value is “relieved from the fatigue peculiar to chronic kidney disease”. In addition, the “eGFR value (in words)” value in series [3] (when 50 mg of aminolevulinic acid phosphate was ingested) was “remarkably improved (increased)”. Moreover, in series [3] (when once again returned to 50 mg), the “eGFR value (in words)” value is listed as “remarkable improvement”. Besides, the “improvement rate of the eGFR value (in words)” value in series [3] (when reduced to 5 mg aminolevulinic acid phosphate and 5.74 mg sodium ferrous citrate) was “lowered”. In series [4], the “serum creatinine (FIG. 1, in words)” value was “remarkable reduction”.
